This is an account of results in patent US9642854B2, “Flavanoid compounds and process for preparation thereof” (Council of Scientific & Industrial Research, priority 2009, dated 2017).

Values after ≈ are worked out from the molar mass of the structure shown. Read-outs that look alike come from different tables or passages of the source. Some results are limits rather than exact numbers.

Assay type in all cases: cell-based, Helicobacter pylori
Assay [1] relates to H. pylori. Kind of assay: MIC and MBC by microbroth dilution assay. Particulars: Helicobacter pylori. The method, then: The compounds, serially diluted ([…]) in Muller Hinton broth containing 5% FCS, were incubated in 96-well microtitre plate containing fresh cultures of HP001 (˜5.5×10^6 CFU/mL) or ATCC® 43504 (2.65×10^6 CFU/ml) in a final volume of […]. After 72-h of incubation under microaerophilic condition at 37° C., […] of cultures wherein no growth had been detected were streaked on fresh brain heart infusion agar plates for MBC determination.
In microbroth dilution assay employing one clinical and one standard strain, both the bacteriostatic and the bactericidal values were determined for all four compounds as well as for clarithromycin (Table 4). Two-fold serial dilutions were prepared in 96-well microtitre plate containing a total volume of 0.1 mL Mueller Hinton broth supplemented with 5% FCS. A 3-day old liquid culture was diluted 10 times in Mueller Hinton broth and 0.1 mL of these cultures was inoculated into each well to give a final concentration of ˜10^6 CFU/mL. The plates were incubated for 3 days in a microaerophilic atmosphere at 37° C. Following incubation, the plates were examined visually, and the lowest concentration showing complete inhibition of growth was recorded as the MIC of the respective compound (Hachem et al., 1996). Aliquots (0.1 mL) of 72-h culture in which no growth had been detected were taken from the wells of the above microtitre plates and used to streak on fresh BHI agar plates.

For assay [2], the system named is H. pylori. Kind of assay: Anti H. pylori screening by disc diffusion susceptibility assay. Particulars: for Inhibition Zone Diameter (mm): spacer molecules; for Inhibition zone diameter (score): 100 and 200 mg/disc (so in the source). How it is done:
The discs were impregnated with […] of each of the compounds, dissolved either in ethanol or DMSO, and the zone of inhibition was measured after 72 h of growth under microaerophilic conditions at 37° C. Inhibition zone diameter ranging 10-20 mm was given a score of ^+, 20-30 mm as ^++ and that of >30 mm as ^+++, as obtained employing dose range of […]/disc. The detailed structural information of the molecules is provided under ‘Description of the Compounds’.
Methods and protocols for the determination of inhibition zone diameter are as stated under Experiment 1, and that of MIC values by microbroth dilution assay as in Experiment 3. ‘Nil’ means zone of inhibition below 10 mm.
The anti H. pylori activity of all 16 flavonoid molecules, 2 naturally isolated and 14 synthetic derivatives, was screened by disc diffusion sensitivity assay employing 2 clinical strains HP001 and HP002, and three standard strains ATCC® 700392, 43504 and 49503. A 0.5 mL inoculum (10^8 CFU/mL) for each bacterial strain tested was flooded on freshly prepared Brain Heart Infusion (BHI) agar plates supplemented with 7% FCS, 0.5% IsoVitalex and 0.0025% DENT® and the discs (5 mm diameter) containing different compounds or antibiotics (dissolved either in ethanol or DMSO) were placed on the agar surface. After incubation for 3 days in a microaerophilic atmosphere at 37° C., the diameter of the zone of inhibition was measured (Glupczynsky, 1996; McNulty et al., 2002).

Assay [3] relates to H. pylori. Description: Anti H. pylori spectrum (MIC) by agar dilution method. Particulars: Helicobacter pylori; for MIC50: MIC against 50% of the strains of the panel, read-out: MIC50. The method, then: MIC was determined using agar dilution assay following the CLSI® guidelines. Six clinical isolates and four standard strains were used for this study. Five microlitre of freshly grown 3-day old culture (˜1×10^8 CFU/mL) was streaked in plates containing 2-fold serial dilution of the compounds ranging […], and incubated under microaerophilic condition at 37° C. After 72 h, the plates were inspected visually for absence of growth to assess the MIC values. The experiment was performed in duplicates. MIC50 is defined as the dose (μg/ml) required for killing 50% of the strains.
Plates contained two-fold serial dilutions of the compounds ranging from […]. Five microlitres of 3-day old freshly grown H. pylori culture (^˜10^8 CFU/mL) was inoculated onto drug-containing BHI agar plates supplemented with 7% FCS, 0.5% IsoVitalex and 0.0025% DENT®, which were then incubated for 3 days under microaerophilic condition at 37° C.

Assay [4] concerns H. pylori. Description: Time kill kinetic analyses in biphasic culture. Particulars: HP001.
Setting [5] is: ATCC43504, microbroth dilution, ATCC 43504.
The mark [6] stands for this setting: 72 h, panel of 6 clinical isolates and 4 standard strains, read-out: MIC Range.
Setting [7] is: clinical strain HP001, read-out: MIC.
The mark [8] stands for this setting: clinical strain HP002, read-out: MIC.
Where [9] appears, read: clinical strain HP003, read-out: MIC.
The mark [10] stands for this setting: clinical strain HP004, read-out: MIC.
Setting [11] is: clinical strain HP005, read-out: MIC.
[12] abbreviates: clinical strain HP006, read-out: MIC.
[13] abbreviates: standard strain 43504, read-out: MIC.
Where [14] appears, read: standard strain 43629, read-out: MIC.
[15] abbreviates: standard strain 49503, read-out: MIC.
The mark [16] stands for this setting: standard strain 700392, read-out: MIC.

Consider `CCCN1CCN(C)CC1` [reference compound], for which the MIC is over 400 µg/mL in the assay with H. pylori [1] (setting [5]) and over 400 µg/mL in the assay on H. pylori [1] (microbroth dilution, HP001). The “Inhibition Zone Diameter (mm)” value in the assay on H. pylori [2] (ATCC 43504) and with H. pylori [2] (HP001) was “Nil (‘Nil’ means zone of inhibition below 10 mm.)” in each case.

In the case of `CC[C@H]1OC(=O)[C@H](C)[C@@H](O[C@H]2C[C@@](C)(OC)[C@@H](O)[C@H](C)O2)[C@H](C)[C@@H](O[C@@H]2O[C@H](C)C[C@H](N(C)C)[C@H]2O)[C@](C)(OC)C[C@@H](C)C(=O)[C@H](C)[C@@H](O)[C@]1(C)O` [Clarithromycin, reference compound], the MBC in the assay on H. pylori [1] (setting [5]) came out at 0.08 µg/mL (≈ 0.107 µM); against H. pylori [1] (microbroth dilution, HP001) it was 0.04 µg/mL (≈ 0.0535 µM). The MIC is 0.04 µg/mL (≈ 0.0535 µM) in the assay on H. pylori [1] (setting [5]); 0.01 µg/mL (≈ 0.0134 µM) against H. pylori [1] (microbroth dilution, HP001); 0.016 to 0.1 µg/mL (≈ 0.0214 to 0.134 µM) in the assay on H. pylori [3] (setting [6]); 0.016 µg/mL (≈ 0.0214 µM) in the assay with H. pylori [3] (setting [7]); 0.032 µg/mL (≈ 0.0428 µM) with H. pylori [3] (setting [8]); under 0.02 µg/mL in the assay with H. pylori [3] (setting [9]). The MIC in the assay on H. pylori [3] (setting [10]) worked out at 0.04 µg/mL (≈ 0.0535 µM); in the assay on H. pylori [3] (setting [11]), 0.08 µg/mL (≈ 0.107 µM); in the assay with H. pylori [3] (setting [12]), 0.08 µg/mL (≈ 0.107 µM); with H. pylori [3] (setting [13]), 0.032 µg/mL (≈ 0.0428 µM); in the assay on H. pylori [3] (setting [14]) it was 0.1 µg/mL (≈ 0.134 µM); in the assay on H. pylori [3] (setting [15]) it was 0.016 µg/mL (≈ 0.0214 µM). Besides, the MIC in the assay on H. pylori [3] (setting [16]) is 0.064 µg/mL (≈ 0.0856 µM). In addition, the MIC50 with H. pylori [3] is 0.032 µg/mL (≈ 0.0428 µM). In addition, the inhibition zone is 20 mm in the assay with H. pylori [2] (strain 43504, 0.04 mg/disc); 15 mm with H. pylori [2] (strain 49503, 0.005 mg/disc); 28 mm with H. pylori [2] (strain 700392, 0.4 mg/disc); 18 mm with H. pylori [2] (strains HP001 and HP002, 0.01 mg/disc). Further, the “decrease in cell count” value in the assay on H. pylori [4] (at around 9 h) was 1 log. For the same molecule, the “time at which killing/inhibition became evident” value in the assay with H. pylori [4] (biphasic culture) is listed as “around 9 h”.

As to `COCCCN1CCOCC1` [reference compound], the MIC in the assay with H. pylori [1] (setting [5]) is over 400 µg/mL; in the assay on H. pylori [1] (microbroth dilution, HP001), over 400 µg/mL. Besides, the “Inhibition Zone Diameter (mm)” value in the assay on H. pylori [2] (ATCC 43504) and with H. pylori [2] (HP001) was “Nil (‘Nil’ means zone of inhibition below 10 mm.)” each time.

Turning to `CCCN1CCOCC1` [reference compound], the MIC is over 400 µg/mL with H. pylori [1] (setting [5]) and over 400 µg/mL against H. pylori [1] (microbroth dilution, HP001). Also, the “Inhibition Zone Diameter (mm)” value in the assay with H. pylori [2] (ATCC 43504) and with H. pylori [2] (HP001) was “Nil (‘Nil’ means zone of inhibition below 10 mm.)” throughout.

Consider `CCCN1CCCCC1` [reference compound], for which the MIC was over 400 µg/mL in the assay on H. pylori [1] (setting [5]) and over 400 µg/mL in the assay on H. pylori [1] (microbroth dilution, HP001). For the same molecule, the “Inhibition Zone Diameter (mm)” value with H. pylori [2] (ATCC 43504) and in the assay on H. pylori [2] (HP001) was “Nil (‘Nil’ means zone of inhibition below 10 mm.)” in each case.

As to `CCCOc1ccc2c(=O)cc(-c3ccccc3)oc2c1` [reference compound], the MIC in the assay with H. pylori [1] (setting [5]) was over 400 µg/mL; against H. pylori [1] (microbroth dilution, HP001), over 400 µg/mL. In addition, the “Inhibition Zone Diameter (mm)” value in the assay with H. pylori [2] (ATCC 43504) and in the assay on H. pylori [2] (HP001) was “Nil (‘Nil’ means zone of inhibition below 10 mm.)” throughout.

Consider `CN(C)CCCCOc1cc(O)c2c(=O)cc(-c3ccccc3)oc2c1` [CHN-3, 7-(4-Dimethylamino-butoxy)-5-hydroxy-2-phenyl-chromen-4-one], for which the MIC50 is about 25 µg/mL (≈ 70.7 µM) in the assay with H. pylori [3] (72 h) and 25 µg/mL (≈ 70.7 µM) with H. pylori [3]. Further, the MIC in the assay on H. pylori [3] (setting [6]) was 6.25 to 25 µg/mL (≈ 17.7 to 70.7 µM); in the assay on H. pylori [3] (setting [7]), 25 µg/mL (≈ 70.7 µM); in the assay with H. pylori [3] (setting [8]) it was 25 µg/mL (≈ 70.7 µM); in the assay with H. pylori [3] (setting [9]) it was under 12.5 µg/mL; in the assay on H. pylori [3] (setting [10]), under 12.5 µg/mL; in the assay with H. pylori [3] (setting [11]), under 12.5 µg/mL. The MIC with H. pylori [3] (setting [12]) is under 12.5 µg/mL; in the assay with H. pylori [3] (setting [13]), 25 µg/mL (≈ 70.7 µM); in the assay with H. pylori [3] (setting [14]), 25 µg/mL (≈ 70.7 µM); in the assay with H. pylori [3] (setting [15]) it was 25 µg/mL (≈ 70.7 µM); with H. pylori [3] (setting [16]), 25 µg/mL (≈ 70.7 µM). Besides, the “Inhibition zone diameter (score)” value is “+ (Inhibition zone diameter ranging 10-20 mm was given a score of ^+)” in the assay with H. pylori [2] (ATCC standard strain 43504, 72 h); “++ (20-30 mm as ^++)” with H. pylori [2] (ATCC standard strain 49503, 72 h); “+ (Inhibition zone diameter ranging 10-20 mm was given a score of ^+)” in the assay on H. pylori [2] (ATCC standard strain 700392, 72 h); “++ (20-30 mm as ^++)” in the assay with H. pylori [2] (clinical strain HP001, 72 h); “++ (20-30 mm as ^++)” in the assay on H. pylori [2] (clinical strain HP002, 72 h). For the same molecule, the zone of inhibition at 100 µg/disc in the assay with H. pylori [2] (Helicobacter pylori, 72 h, 100 and 200 μg/disc, majority of the strains, read-out: Activity class by inhibition zone diameter) lay in the range of 20 to 30 mm.
